System: pUAS-2-driven Fluc in HEK293T cells co-infected with Virus a and Virus b
Assay: AAV infection of HEK293T cells, luciferase bioluminescence
Type: cell-based, human
Conditions: 100 nM MZ1, three days post-infection, FIG. 4B
Method: AAV infection on HEK293T cells. Before infection, HEK293T cells were seeded into 96 well plates (Corning no. 3610). When the confluency reaching 50%, 1 μL of each purified AAV virus (Virus a and Virus b in FIGS. 4 and 19) were added into the supernatant of HEK293T cells. 100 nM of MZ1 or DMSO was added into the supernatant. Three days post-infection, cells with 80 μL medium were treated with 40 μL lysis buffer (500 mM DTT, 10 mM coenzyme A, 100 mM ATP, 80 mg/mL D-luciferin, Triton lysis buffer (0.1082 M Tris-HCl, 0.0419 M Tris-Base, 75 mM NaCl, 3 mM MgCl2)). To lysis the cells Plate was shaken by plate reader Infinite M200 (TECAN) with 20 seconds in “Orbital” mode with frequency of 432 rpm and Amplitude of 1 mm. Relative light units of luminescence was recorded by plate reader Infinite M200 (TECAN) with 1000 ms integration time using Megellan v1.7 (TECAN).

Cc1ncsc1-c1ccc(CNC(=O)[C@@H]2C[C@@H](O)CN2C(=O)[C@@H](NC(=O)COCCOCCOCCNC(=O)C[C@@H]2N=C(c3ccc(Cl)cc3)c3c(sc(C)c3C)-n3c(C)nnc32)C(C)(C)C)cc1 [MZ1]
increase in luciferase bioluminescence intensity: more than 60 fold

From patent US20250382631A1, “PROTAC-CID SYSTEMS FOR USE IN MULTIPLEX GENE REGULATION” (William Marsh Rice University, priority 2022, published 2025)
